Results taken from patent publication US8658662B2, “Crystalline CDC7 inhibitor salts” (Nerviano Medical Sciences S.r.l., priority 2009, dated 2014).
Values after ≈ are worked out from the molar mass of the structure shown. Where a name gives a salt, the structure may show the parent alone. Read-outs that look alike come from different tables or passages of the source.

How the values were obtained:
Format in all cases: physicochemical
[1] = Solubility of crystalline NMS-E354 salts and free base in 0.9% NaCl solution; settings: for Aqueous solubility value: stirred 4 hours at RT, excess solid (target 10 mg/ml), filtered, HPLC
Procedure: The determination of solubility of NMS-E354 salts has been performed by means of the following procedure: known amounts of crystalline NMS-E354 salts or free base stirred for 4 hours at RT in 0.9% NaCl solution, in condition of excess solid considering a target concentration of 10 mg/ml. The obtained preparations were filtered and analysed by means of HPLC.

[2] = Hygroscopicity test by Dynamic Vapour Sorption (DVS); settings: RH modifications up to 90% at 25° C.
From the text: The water uptake of crystalline NMS-E354 salts and free base was investigated by submitting a sample of such substances to a hygroscopicity test by means of a DVS 1000 (SMS). The apparatus is a “controlled atmosphere microbalance” where the weighed sample is exposed to programmed variations of the relative humidity (RH) at a constant and controlled temperature. The measured parameters (weight, time and RH), reported in Excel worksheets, allow obtaining hygroscopicity curves over the tested RH range. Sorption/desorption cycles between 0% and 90% RH can be performed at controlled temperature of 25° C. Progressive variations of RH can be of 10% and 3%; they are operated by the software at the equilibration of the sample weight. This condition can be defined at a constant rate of percent weight variation e.g. 0.005%/min.

[3] = Solubility of NMS-E354 free base in water and early formulation vehicles
Procedure: The solubility of the NMS-E354 free base is about 4 mg/ml in 10% Polysorbate 80 in 5% dextrose solution, about 7 mg/ml in aqueous 50% Polyethylene Glycol 400 in 5% dextrose solution and about 1÷2 mg/ml when formulated as hydrochloride or phosphate in situ salt. NMS-E354 free base was also suitable for aqueous hypromellose suspensions at about 10 mg/ml. Therefore, the obtained free base was initially formulated as cosolvent based aqueous solution, in situ salt or hypromellose suspension in order to allow administration during early pharmacological and toxicological evaluation for early pharmacological studies.

SMILES	solubility in 0.9% NaCl solution [1]	Aqueous solubility value [1]	hygroscopicity [2]	Aqueous solubility value ([1]; listed as Free base)	solubility ([3]; 10% Polysorbate 80 in 5% dextrose solution, aqueous with cosolvent or surfactant or cyclodextrin, read-out: solubility)	solubility ([3]; aqueous 50% Polyethylene Glycol 400 in 5% dextrose solution, aqueous with cosolvent or surfactant or cyclodextrin, read-out: solubility)	solubility ([3]; hydrochloride or phosphate in situ salt formulation, formulated as hydrochloride or phosphate in situ salt, read-out: solubility)	solubility ([3]; water, read-out: aqueous solubility)
NC(=O)c1cc(-c2ccnc(N)n2)[nH]c1-c1ccc(Cl)cc1Cl [Maleate salt, 5-(2-amino-pyrimidin-4-yl)-2-(2,4-dichloro-phenyl)-1H-pyrrole-3-carboxylic acid amide]	0.07 mg/mL	0.07 mg/mL	low hygroscopicity	–	–	–	–	–
NC(=O)c1cc(-c2ccnc(N)n2)[nH]c1-c1ccc(Cl)cc1Cl [Sulfate salt, 5-(2-amino-pyrimidin-4-yl)-2-(2,4-dichloro-phenyl)-1H-pyrrole-3-carboxylic acid amide]	0.15 mg/mL	0.15 mg/mL	low hygroscopicity	–	–	–	–	–
NC(=O)c1cc(-c2ccnc(N)n2)[nH]c1-c1ccc(Cl)cc1Cl [Hemifumarate salt, 5-(2-amino-pyrimidin-4-yl)-2-(2,4-dichloro-phenyl)-1H-pyrrole-3-carboxylic acid amide]	–	0.02 mg/mL	low hygroscopicity	–	–	–	–	–
NC(=O)c1cc(-c2ccnc(N)n2)[nH]c1-c1ccc(Cl)cc1Cl [NMS-E354, 5-(2-amino-pyrimidin-4-yl)-2-(2,4-dichloro-phenyl)-1H-pyrrole-3-carboxylic acid amide]	–	–	low hygroscopicity	<0.01 mg/mL	~4 mg/mL (≈ 11.5 mM)	~7 mg/mL (≈ 20.1 mM)	1 to 2 mg/mL	< 0.01 mg/mL
NC(=O)c1cc(-c2ccnc(N)n2)[nH]c1-c1ccc(Cl)cc1Cl [Mesylate salt, 5-(2-amino-pyrimidin-4-yl)-2-(2,4-dichloro-phenyl)-1H-pyrrole-3-carboxylic acid amide]	–	0.12 mg/mL	low hygroscopicity	–	–	–	–	–
